# Results published in patent US20190374563A1, “TREATMENT OF KLEBSIELLA PNEUMONIAE INFECTIONS WITH ANTIBACTERIAL AMINOGLYCOSIDE COMPOUNDS” (Achaogen, Inc., priority 2009, published 2019).
# Legend:
# Format in all cases: cell-based
# [1] = tested on: multidrug-resistant (MDR) K. pneumoniae isolates (n = 102); experiment: MIC by microdilution, clinical isolates; settings: for S (%), susceptible isolates: Total MDR K. pneumoniae isolates (n = 102), CLSI criteria, tigecycline US FDA criteria
# Description: (§1) The in vitro activity of representative antibacterial aminoglycoside compounds against a collection of 102 K. pneumoniae clinical isolates collected from January 2006 to October 2007 at the University of Pittsburgh Medical Center, and three Cleveland institutions including University Hospitals Case Medical Center, the Cleveland Clinic, and the Louis Stokes Department of Veterans Affairs Medical Center was analyzed. The 102 K. pneumoniae isolates were selected based on a multidrug-resistant (MDR) phenotype (i.e., resistance to >3 antibiotic classes). Twenty-five isolates were KPC carbapenemase producing (KPC-Kp), and were part of a previous study where the β-lactamase background and clonality were characterized (see Endimiani, A., A. M. Hujer, F. Perez, C. R. Bethel, K. M. Hujer, J. Kroeger, M. Oethinger, D. L. Paterson, M. D. Adams, M. R. Jacobs, D. J. Diekema, G. S. Hall, S. G. Jenkins, L. B. Rice, F. C. Tenover, and R. A. Bonomo. 2009. Characterization of blaKPC-containing Klebsiella pneumoniae isolates detected in different institutions in the Eastern USA. J Antimicrob Chemother 63:427-37).
# (§2) Minimum inhibitory concentrations (MICs) were performed by microdilution method using cation-adjusted Mueller-Hinton broth, according to the Clinical and Laboratory Standards Institute (CLSI) criteria (see CLSI. 2006. Methods for dilution antimicrobial susceptibility tests for bacteria that grow aerobically; approved standard-Seventh edition. Clinical and Laboratory Standard Institute, Wayne, Pa. CLSI document M7-A7). These MIC assays were conducted following the same protocol as set forth in Example 110. […] The following ATCC control strains were used: Escherichia coli ATCC 25922, Pseudomonas aeruginosa ATCC 27853, and K. pneumoniae ATCC 700603.
# [2] = tested on: K. pneumoniae producing KPC (n = 25); experiment: MIC by microdilution, clinical isolates
# Description: as §1, §2
# [3] = tested on: P. aeruginosa ATCC 27853 (APAE001); experiment: MIC assay, CLSI broth microdilution; settings: Pseudomonas aeruginosa, ATCC27853, read-out: MIC APAE001
# How it was run: (§3)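 CLSI M7-A7 broth microdilution; 2-fold serial dilutions in Mueller Hinton Broth, 1:1 with inoculum; final 5×10^5 CFU/mL; 35° C., 20 h, ambient air. QC strains E. coli ATCC 25922, P. aeruginosa ATCC 27853, S. aureus ATCC 29213.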
# [4] = tested on: E. coli ATCC 25922 (AECO001); experiment: MIC assay, CLSI broth microdilution; settings: Escherichia coli, ATCC25922, read-out: MIC AECO001
# How it was run: as §3
SMILES,MIC [3] [µg/mL],MIC [4] [µg/mL],further results
"CN(C)c1cc(NC(=O)CNC(C)(C)C)c(O)c2c1C[C@H]1C[C@H]3[C@H](N(C)C)C(O)=C(C(N)=O)C(=O)[C@@]3(O)C(O)=C1C2=O [Tigecycline, tigecycline]",–,–,"MIC50 ([1]; Klebsiella pneumoniae): 1 µg/mL; MIC90 ([1]; Klebsiella pneumoniae): 2 µg/mL; S (%), susceptible isolates [1]: 90.2%; S (%), susceptible isolates ([1]; listed as tigecycline): ~90%; S (%), susceptible isolates ([2]; K. pneumoniae producing KPC (n = 25), CLSI criteria, tigecycline US FDA criteria): 96.0%; MIC50 ([2]; Klebsiella pneumoniae): 1 µg/mL; MIC90 ([2]; Klebsiella pneumoniae): 2 µg/mL"
CN[C@@H]1[C@@H](O)[C@@H](O[C@@H]2[C@@H](O)[C@H](O[C@H]3OC(CNCC4(O)CC(N)C4)=CC[C@H]3N)[C@@H](N)C[C@H]2NC(=O)[C@@H](O)CCN)OC[C@]1(C)O (stereo partly shown) [Example 46],1 to 16,< 1,–
"CN[C@@H]1[C@@H](O)[C@@H](O[C@@H]2[C@@H](O)[C@H](O[C@H]3OC(CNCC(C)(C)N)=CC[C@H]3N)[C@@H](N)C[C@H]2NC(=O)[C@@H](O)CN)OC[C@]1(C)O [Example 55, 6′-(2-Methyl-2-amino-propyl)-1-(3-amino-2(S)-hydroxy-propionyl)-sisomicin]",> 16,1 to 16,–
"CN[C@@H]1[C@@H](O)[C@@H](O[C@@H]2[C@@H](O)[C@H](O[C@H]3OC(CNCC(O)CO)=CC[C@H]3N)[C@@H](N)C[C@H]2NC(=O)[C@@H](O)CN)OC[C@]1(C)O (stereo partly drawn) [Example 14, 6′-(2-Hydroxy-propanol)-1-(3-amino-2(S)-hydroxy-propionyl)-sisomicin]",1 to 16,1 to 16,–
"CN[C@@H]1[C@@H](O)[C@@H](O[C@@H]2[C@@H](O)[C@H](O[C@H]3OC(CNC[C@H]4C[C@H](N)C4)=CC[C@H]3N)[C@@H](N)C[C@H]2NC(=O)C(O)C2CNC2)OC[C@]1(C)O (stereo partly drawn) [Example 72, 6′-(Methyl-trans-3-amino-cyclobutyl)-1-(2-(azetidin-3-yl)-2-hydroxy-acetyl)-sisomicin]",1 to 16,1 to 16,–
"CN[C@@H]1[C@@H](O)[C@@H](O[C@@H]2[C@@H](O)[C@H](O[C@H]3OC(CNCCO)=CC[C@H]3N)[C@@H](N)C[C@H]2NC(=O)[C@H](O)CCN)OC[C@]1(C)O [Example 2, 6′-(2-Hydroxy-ethyl)-1-(4-amino-2(R)-hydroxy-butyryl)-sisomicin]",1 to 16,1 to 16,–
CN[C@@H]1[C@@H](O)[C@@H](O[C@@H]2[C@@H](O)[C@H](O[C@H]3OC(CNCCO)=CC[C@H]3N)[C@@H](N)C[C@H]2NC(=O)C2(O)CNC2)OC[C@]1(C)O [Example 37],1 to 16,< 1,–
"CN[C@@H]1[C@@H](O)[C@@H](O[C@@H]2[C@@H](O)[C@H](O[C@H]3OC(CNCC(O)CN)=CC[C@H]3N)[C@@H](N)C[C@H]2NC(=O)C2(O)CCNC2)OC[C@]1(C)O (stereo partly shown) [Example 42, 6′-(2-Hydroxy-3-amino-propyl)-1-(3-hydroxy-pyrrolidin-3-yl-acetyl)-sisomicin]",1 to 16,1 to 16,–
"CN[C@@H]1[C@@H](O)[C@@H](O[C@@H]2[C@@H](O)[C@H](O[C@H]3OC(CN)=CC[C@H]3NC(=O)CC3CNCCO3)[C@@H](N)C[C@H]2NC(=O)[C@@H](O)CCN)OC[C@]1(C)O (stereo partly drawn) [Example 92, 2′-(Morpholin-2-yl-acetyl)-1-(4-amino-2(S)-hydroxy-butyryl)-sisomicin]",> 16,< 1,–
"CN[C@@H]1[C@@H](O)[C@@H](O[C@@H]2[C@@H](O)[C@H](O[C@H]3OC(CNC[C@H]4C[C@H](N)C4)=CC[C@H]3NC(=N)N)[C@@H](N)C[C@H]2N)OC[C@]1(C)O [Example 107, 6′-(Methyl-trans-3-amino-cyclobutyl)-2′-guanidinium-sisomicin]",< 1,1 to 16,–
"CN[C@@H]1[C@@H](O)[C@@H](O[C@@H]2[C@@H](O)[C@H](O[C@H]3OC(CNC[C@@H]4C[C@H](N)CN4)=CC[C@H]3N)[C@@H](N)C[C@H]2NC(=O)[C@@H](O)CN)OC[C@]1(C)O [Example 65, 6′-(Methyl-4(S)-amino-pyrrolidin-2(S)-yl)-1-(3-amino-2(S)-hydroxy-propionyl)-sisomicin]",1 to 16,1 to 16,–
CN[C@@H]1[C@@H](O)[C@@H](O[C@@H]2[C@@H](O)[C@H](O[C@H]3OC(CNCC(O)CCN)=CC[C@H]3N)[C@@H](N)C[C@H]2NC(=O)C2(O)CCNC2)OC[C@]1(C)O (stereo partly shown) [Example 35],1 to 16,< 1,–
"CN[C@@H]1[C@@H](O)[C@@H](O[C@@H]2[C@@H](O)[C@H](O[C@H]3OC(CN)=CC[C@H]3NCCO)[C@@H](N)C[C@H]2NC(=O)[C@@H](O)CCN)OC[C@]1(C)O [Example 98, 2′-(2-Hydroxy-ethyl)-1-(4-amino-2(S)-hydroxy-butyryl)-sisomicin]",1 to 16,1 to 16,–
"CN[C@@H]1[C@@H](O)[C@@H](O[C@@H]2[C@@H](O)[C@H](O[C@H]3OC(CNCCCC(O)CN)=CC[C@H]3N)[C@@H](N)C[C@H]2NC(=O)[C@@H](O)CN)OC[C@]1(C)O (stereo partly drawn) [Example 80, 6′-(4-Hydroxy-5-amino-pentyl)-1-(3-amino-2(S)-hydroxy-propionyl)-sisomicin]",< 1,< 1,–
"CN[C@@H]1[C@@H](O)[C@@H](O[C@@H]2[C@@H](O)[C@H](O[C@H]3OC(CNCC4CC4)=CC[C@H]3N)[C@@H](N)C[C@H]2NC(=O)C(O)C2CNC2)OC[C@]1(C)O (stereo partly shown) [Example 71, 6′-Methylcyclopropyl-1-(2-(azetidin-3-yl)-2-hydroxy-acetyl)-sisomicin]",> 16,1 to 16,–
"CN[C@@H]1[C@@H](O)[C@@H](O[C@@H]2[C@@H](O)[C@H](O[C@H]3OC(CNCC(O)C(N)=O)=CC[C@H]3N)[C@@H](N)C[C@H]2NC(=O)[C@@H](O)CN)OC[C@]1(C)O (stereo partly drawn) [Example 21, 6′-(2-Hydroxy-3-propionamide)-1-(3-amino-2(S)-hydroxy-propionyl)-sisomicin]",1 to 16,1 to 16,–
"CNCC(=O)N[C@@H]1CC=C(CN)O[C@@H]1O[C@H]1[C@H](O)[C@@H](O[C@H]2OC[C@](C)(O)[C@H](NC)[C@H]2O)[C@H](NC(=O)[C@@H](O)CCN)C[C@@H]1N [Example 86, 2′-(N-methyl-amino-acetyl)-1-(4-amino-2(S)-hydroxy-butyryl)-sisomicin]",1 to 16,1 to 16,–
"CN[C@@H]1[C@@H](O)[C@@H](O[C@@H]2[C@@H](O)[C@H](O[C@H]3OC(CN)=CC[C@H]3NCC3CCCN3)[C@@H](N)C[C@H]2NC(=O)[C@@H](O)CCN)OC[C@]1(C)O (stereo partly drawn) [Example 85, 2′-(Methyl-pyrrolidin-2-yl)-1-(4-amino-2(S)-hydroxy-butyryl)-sisomicin]",1 to 16,< 1,–
"CN[C@@H]1[C@@H](O)[C@@H](O[C@@H]2[C@@H](O)[C@H](O[C@H]3OC(CNC[C@H]4C[C@H](O)CN4)=CC[C@H]3N)[C@@H](N)C[C@H]2NC(=O)[C@@H](O)CN)OC[C@]1(C)O [Example 53, 6′-(Methyl-4(S)-hydroxy-pyrrolidin-2(R)-yl)-1-(3-amino-2(S)-hydroxy-propionyl)-sisomicin]",> 16,1 to 16,–
"CN[C@@H]1[C@@H](O)[C@@H](O[C@@H]2[C@@H](O)[C@H](O[C@H]3OC(CN)=CC[C@H]3NC(=O)C(O)CN)[C@@H](N)C[C@H]2NC(=O)[C@@H](O)CCN)OC[C@]1(C)O (stereo partly drawn) [Example 89, 2′-(3-Amino-2-hydroxy-propionyl)-1-(4-amino-2(S)-hydroxy-butyryl)-sisomicin]",1 to 16,< 1,–
CN[C@@H]1[C@@H](O)[C@@H](O[C@@H]2[C@@H](O)[C@H](O[C@H]3OC(CNCC4(O)CC(N)C4)=CC[C@H]3N)[C@@H](N)C[C@H]2NC(=O)C2(O)CNC2)OC[C@]1(C)O (stereo partly shown) [Example 47],1 to 16,1 to 16,–
"CN[C@@H]1[C@@H](O)[C@@H](O[C@@H]2[C@@H](O)[C@H](O[C@H]3OC(CNCC4(CN)CC4)=CC[C@H]3N)[C@@H](N)C[C@H]2NC(=O)C(O)C2CNC2)OC[C@]1(C)O (stereo partly shown) [Example 74, 6′-(Methyl-1-aminomethyl-cyclopropyl)-1-(2-(azetidin-3-yl)-2-hydroxy-acetyl)-sisomicin]",> 16,1 to 16,–
